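Grown in 96-well plates, cells were treated for 48 hours with each compound at five concentrations. Insufficient inhibition: endpoint recorded as highest concentration tested. GI50 marks 50% less growth. Definition used: TGI = concentration required for complete inhibition of growth.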

Common to all, as to assay: growth of human tumour cells (NCI), 48 h
The test system of test [1] is ACHN renal.
In test [2] the test system is CAKI-1 renal.
The subject of test [3] is K-562 leukemia.
Test [4] relates to OVCAR-4 ovarian.
For test [5], the system named is OVCAR-5 ovarian.
Test [6] concerns OVCAR-8 ovarian.
In test [7] the test system is SK-OV-3 ovarian.
Test [8] deals with SN12C renal.
The test system of test [9] is SNB-19 CNS.
The subject of test [10] is UO-31 renal.

In the case of `NC(CSC1(c2ccc(Cl)cc2)c2ccccc2-c2ccccc21)C(=O)O` (stereo not given), the TGI in test [1] is 50.2 µM; in [2], greater than 100 µM; in test [3], greater than 100 µM; in test [4], greater than 100 µM; in test [5] it was 79.5 µM; in test [6] it was 38.7 µM. Moreover, the TGI was greater than 100 µM in [7], 41.4 µM in test [8], 52.8 µM in test [9] and 98.8 µM in test [10].

`O=c1sc(-c2nc3ccccc3[nH]2)c(/N=C/c2ccccc2)n1-c1ccccc1`: the TGI in [1] is greater than 100 µM; in test [2], greater than 100 µM; in test [3] it was greater than 100 µM; in test [4], 26.7 µM; in test [5] it was greater than 100 µM; in [6] it was greater than 100 µM. Also, the TGI in [7] was 89.1 µM; in test [8], greater than 100 µM; in test [9], greater than 100 µM; in test [10] it was greater than 100 µM.

Consider `O=C(O)c1c[nH]c2c(ccc3[nH]cc(C(=O)O)c(=O)c32)c1=O`, for which the TGI in test [1], in [2], in test [3], in test [4], in [5] and in test [6] was greater than 100 µM throughout. Also, the TGI in [7], in [8], in test [9] and in test [10] was greater than 100 µM each time.

Consider `COC(=O)C1=Cc2cn(S(=O)(=O)c3ccc(C)cc3)c3cccc(c23)C(C=C(C)C)N1C(C)=O` (stereo not given), for which the TGI is greater than 100 µM in test [1]; 79.6 µM in [2]; greater than 100 µM in test [3]; greater than 100 µM in [4]; greater than 100 µM in [5]; greater than 100 µM in test [6]. Besides, the TGI in [7], in test [8], in test [9] and in test [10] was greater than 100 µM in each case.

`COc1cc2oc(-c3ccc(O)cc3)cc(=O)c2c(OC)c1O`: the TGI in test [1], in test [2], in test [3], in [4], in test [5] and in test [6] was greater than 100 µM each time. The TGI in test [7], in test [8], in test [9] and in [10] was greater than 100 µM throughout.

`N/C(=N/N=C/c1cccc(F)c1)NO`: the TGI in [1] was greater than 100 µM; in [2], 91.7 µM; in test [3] it was greater than 100 µM; in [4], greater than 100 µM; in test [5], greater than 100 µM; in test [6], greater than 100 µM. In addition, the TGI in test [7], in [8], in [9] and in [10] was greater than 100 µM each time.

`Clc1ccc(Nc2ncnc3c2sc2ncccc23)c(Cl)c1`: the GI50 in [1] was less than 0.01 µM; in [2] it was less than 0.0107 µM; in [3], 0.27 µM; in test [4], greater than 100 µM; in test [5] it was 0.0576 µM; in test [6], less than 0.0135 µM. In addition, the GI50 in test [7] is 0.137 µM; in test [8], 0.126 µM; in test [9], less than 0.0121 µM; in [10], less than 0.01 µM. The TGI is 3.95 µM in test [1]; greater than 33.9 µM in test [2]; greater than 100 µM in test [3]; greater than 100 µM in [4]; greater than 100 µM in [5]; greater than 100 µM in test [6]. The TGI in test [7] was greater than 100 µM; in test [8], greater than 100 µM; in test [9], greater than 100 µM; in [10] it was 4.32 µM.

`CCN(CC)CCNC(=O)C(Cl)=C1C(Cl)=C(Cl)C(Cl)=C1Cl`: the GI50 was 3.35 µM in test [1]; 2.73 µM in [2]; 3.56 µM in test [3]; 4.17 µM in test [4]; 4.82 µM in test [5]; 2.81 µM in [6]. Besides, the GI50 is 3.21 µM in test [7], 4.03 µM in test [8], 10.9 µM in [9] and 6.88 µM in test [10]. Besides, the TGI in test [1] is 24.6 µM; in test [2], greater than 100 µM; in test [3], greater than 100 µM; in [4] it was 15.6 µM; in test [5], 27.8 µM; in test [6] it was greater than 100 µM. Further, the TGI is greater than 100 µM in [7], 49.8 µM in test [8], 29.6 µM in test [9] and 26 µM in [10].

Turning to `CN1c2ccccc2S(=O)(=O)n2c(COc3ccccc3)nnc21`, the TGI in [1], in test [2], in test [3], in test [4], in test [5] and in [6] was greater than 100 µM each time. Also, the TGI in test [7], in test [8], in [9] and in [10] was greater than 100 µM throughout.

With `CN(CC1NCCCC1O)C12CC3CC(CC(C3)C1)C2` (stereo not given), the TGI in test [1], in test [2], in test [3], in test [4], in [5] and in [6] was greater than 100 µM throughout. The TGI in test [7], in test [8], in test [9] and in [10] was greater than 100 µM throughout.

In the case of `C=CCCCC(O)c1ccc(C(O)c2cnc3ccccc3c2)o1` (stereo not given), the GI50 in test [1] was 25.4 µM; in test [2], 31.4 µM; in test [3], 25 µM; in test [4], greater than 100 µM; in test [5], 24.4 µM; in [6], 26.7 µM. The GI50 in [7] was greater than 100 µM; in [8] it was 30.9 µM; in test [9], 82.5 µM; in test [10], 50.9 µM. Also, the TGI in test [1] is 61.6 µM; in test [2], 98.4 µM; in test [3], 52.6 µM; in test [4], greater than 100 µM; in test [5], 76.8 µM; in test [6] it was 72 µM. Also, the TGI was greater than 100 µM in [7], 90.9 µM in test [8], greater than 100 µM in test [9] and greater than 100 µM in test [10].

The values above are taken from PubChem BioAssay (NCI).
